Here are results for three molecules from publication PMC8284453 (Antimicrobial Agents and Chemotherapy, 2021).

As usually defined, the MIC50 is an inhibitory concentration at the 50% level, which refers to growth in some studies and to a panel of isolates in others. The low end stands for higher susceptibility, the high end for lower susceptibility. The term MIC90 denotes the lowest concentration that inhibits either 90% of growth or 90% of the strains tested, depending on the study.

≈ marks a conversion by molar mass, not a printed value. Read-outs that look alike come from different tables or passages of the source.

Experiment [1] has as its system Enterobacterales expressing class A carbapenemases (KPC). Description: organism not typed. Type of experiment: cell-based, K. pneumoniae, E. coli, E. cloacae, Klebsiella oxytoca.
Experiment [2] concerns Enterobacterales expressing class D oxacillinases (OXA-48/48-like). The experiment can be described thus: organism not typed. Type of experiment: cell-based, E. coli, K. pneumoniae.
Experiment [3] relates to isogenic strains of E. coli expressing Ambler class A, B, C, and D enzymes. The experiment can be described thus: microbe, parasite or virus in culture. Type of experiment: cell-based, Escherichia coli. The note with it: Escherichia coli, read-out: Vector control MIC.
Experiment [4] concerns Enterobacterales expressing class C cephalosporinases.
In experiment [5] the test system is strains of Enterobacterales expressing serine β-lactamases. Description: organism not typed. The experiment is classed as cell-based.
Setting [6] is: 25 isolates, BLI fixed at 4 μg/ml, AMC 2:1.

`CC1(C)S[C@@H]2[C@H](NC(=O)[C@H](N)c3ccc(O)cc3)C(=O)N2[C@H]1C(=O)O` [AMX, amoxicillin]: the MIC in experiment [1] (E. cloacae 847429 (KPC)) was ≥ 64 µg/mL; in experiment [1] (E. cloacae OIMGH49 (p99 AmpC, ACT-2, KPC-2, TEM-1)), ≥ 64 µg/mL; in experiment [1] (E. coli 786978 (KPC)), ≥ 64 µg/mL; in experiment [1] (K. pneumoniae 845661 (KPC)) it was ≥ 64 µg/mL; in experiment [1] (K. pneumoniae 845662 (KPC)), ≥ 64 µg/mL; in experiment [1] (K. pneumoniae 845665 (KPC)) it was ≥ 64 µg/mL. In addition, the MIC in experiment [1] (K. pneumoniae 845667 (KPC)), in experiment [1] (K. pneumoniae 845670 (KPC)), in experiment [1] (K. pneumoniae 845904 (KPC)), in experiment [1] (K. pneumoniae 847204 (KPC)), in experiment [1] (K. pneumoniae 847375 (KPC)) and in experiment [1] (K. pneumoniae 847387 (KPC)) was ≥ 64 µg/mL each time. Moreover, the MIC in experiment [2] (E. coli 664507 (OXA-48)), in experiment [2] (E. coli 664516 (OXA-48)), in experiment [2] (E. coli 664520 (OXA-48)), in experiment [2] (E. coli 664522 (OXA-48)), in experiment [2] (E. coli 664523 (OXA-48)) and in experiment [2] (E. coli 664524 (OXA-48)) was ≥ 256 µg/mL throughout. Moreover, the MIC in experiment [2] (E. coli 664525 (OXA-48)), in experiment [2] (E. coli 664526 (OXA-48)), in experiment [2] (E. coli 664528 (OXA-48)), in experiment [2] (E. coli 787112 (OXA-48)), in experiment [2] (E. coli SI-422 (OXA-48)) and in experiment [2] (E. coli VER (OXA-48)) was ≥ 256 µg/mL each time. Also, the MIC in experiment [2] (K. pneumoniae 6299 (OXA-163)) is ≥ 256 µg/mL; in experiment [2] (K. pneumoniae 515746 (OXA-48), first line) it was ≥ 256 µg/mL; in experiment [2] (K. pneumoniae 515746 (OXA-48), second line), ≥ 256 µg/mL; in experiment [2] (K. pneumoniae 664438 (OXA-48)), ≥ 256 µg/mL; in experiment [2] (K. pneumoniae 664439 (OXA-48)) it was ≥ 256 µg/mL; in experiment [2] (K. pneumoniae 664509 (OXA-48)), ≥ 256 µg/mL. The MIC in experiment [2] (K. pneumoniae 664518 (OXA-48)), in experiment [2] (K. pneumoniae 722870 (OXA-48)), in experiment [2] (K. pneumoniae BAH (OXA-204)), in experiment [2] (K. pneumoniae DEL (OXA-232)), in experiment [2] (K. pneumoniae DOV (OXA-48)) and in experiment [2] (K. pneumoniae KIRK (OXA-162)) was ≥ 256 µg/mL in each case. Further, the MIC was ≥ 256 µg/mL in experiment [2] (K. pneumoniae SI-C17 (OXA-48)); 8 µg/mL (≈ 21.9 µM) in experiment [3]; ≥ 256 µg/mL in experiment [4] (C. freundii 134390 (AmpC, TEM-1)); ≥ 256 µg/mL in experiment [4] (E. aerogenes 110099 (AmpC, SHV-12)); ≥ 256 µg/mL in experiment [4] (E. aerogenes 111707 (AmpC, TEM-1)); ≥ 256 µg/mL in experiment [4] (E. aerogenes 111902 (AmpC, TEM-1)). Further, the MIC is 128 µg/mL (≈ 350 µM) in experiment [4] (E. coli 128 (AmpC, SHV-12, TEM-1, Toho-2)); 32 µg/mL (≈ 87.6 µM) in experiment [4] (E. coli 3102 (AmpC, CTX-M-15, TEM-1)); ≥ 256 µg/mL in experiment [4] (E. coli CH1 (AmpC, CTX-M-15, SHV-1, SHV-5, TEM-1)); 128 µg/mL (≈ 350 µM) in experiment [4] (E. coli EC469 (AmpC, SHV-12, TEM-1)); 128 µg/mL (≈ 350 µM) in experiment [4] (E. coli J53 (AmpC, SHV-5, TEM-1)); ≥ 256 µg/mL in experiment [4] (E. coli SI-P026TC (CMY-2, TEM-1)). For the same molecule, the MIC is ≥ 256 µg/mL in experiment [4] (E. coli SI-PO26 (AmpC, CMY-2, TEM-1)); ≥ 256 µg/mL in experiment [4] (K. pneumoniae 129032 (MOX-2, SHV-12, TEM-1)); ≥ 256 µg/mL in experiment [4] (K. pneumoniae 178279 (AmpC, SHV-12, TEM-1)); ≥ 256 µg/mL in experiment [4] (K. pneumoniae 212027 (AmpC, FOX-5, TEM-1)); ≥ 256 µg/mL in experiment [4] (K. pneumoniae 217917 (CMY-2, TEM-1)); ≥ 256 µg/mL in experiment [4] (K. pneumoniae 301313 (AmpC, SHV-12, TEM-1)). The MIC was ≥ 256 µg/mL in experiment [4] (K. pneumoniae 398845 (CMY-2, SHV-12, TEM-1)); ≥ 256 µg/mL in experiment [4] (K. pneumoniae SI-F100 (CMY-2, SHV-5, TEM-1)); ≥ 256 µg/mL in experiment [4] (P. mirabilis SI-F014 (AmpC, TEM-72)); ≥ 256 µg/mL in experiment [4] (S. marcescens 132253 (AmpC, CTX-M-3, OXA-1, SHV-12, TEM-1)); ≥ 256 µg/mL in experiment [4] (S. marcescens 134434 (AmpC, SHV-12, TEM-1)); ≥ 256 µg/mL in experiment [4] (S. marcescens 142397 (AmpC, SHV-7, TEM-1)). The MIC in experiment [4] (S. marcescens 156212 (AmpC, SHV-12, TEM-1)) is ≥ 256 µg/mL; in experiment [4] (S. marcescens 192478 (AmpC, SHV-12, TEM-1)) it was ≥ 256 µg/mL; in experiment [4] (S. marcescens 218068 (AmpC, SHV-7, TEM-1)), ≥ 256 µg/mL. Also, the MIC50 in experiment [2] (setting [6]) and in experiment [4] (setting [6]) was ≥ 256 µg/mL in each case. Also, the MIC90 in experiment [2] (setting [6]) and in experiment [4] (setting [6]) was ≥ 256 µg/mL each time. The MIC range in experiment [2] (setting [6]) is ≥ 256 µg/mL.

As to `CO/N=C(\C(=O)N[C@@H]1C(=O)N2C(C(=O)O)=C(/C=C\c3scnc3C)CS[C@H]12)c1csc(N)n1` [Cefditoren, cefditoren], in experiment [5], the MIC50 came out at 0.5 µg/mL (≈ 0.987 µM) and the MIC90 was determined as 2 µg/mL (≈ 3.95 µM).

In the case of `C=CC1=C(C(=O)O)N2C(=O)[C@@H](NC(=O)/C(=N\OCC(=O)O)c3csc(N)n3)[C@H]2SC1` [Cefixime, cefixime], in experiment [5], the MIC50 was 0.5 µg/mL (≈ 1.1 µM) and the MIC90 is 2 µg/mL (≈ 4.41 µM).
